Values joined by “and” are separate entries in the source; they are usually repeats but may differ in a detail not shown here. Identical values can stand only once. Toxic doses and inconclusive results are not listed.
Test system: CD2F1 mice, L1210 leukemia ip, survival T/C
Assay: NCI In Vivo Anticancer Drug Screen. Data for tumor model L1210 Leukemia (intraperitoneal) in CD2F1 (CDF1) mice
Details: endpoint: mean survival time, higher = longer survival
In short: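 Activity against a transplanted murine tumor was judged by comparing the compound group with a vehicle group. The outcome in the treated animals was divided by that in the controls.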

[1] = dose: 100.0 mg/kg/injection, schedule: Q01DX009 (ip), vehicle: saline with Tween-80
[2] = dose: 200.0 mg/kg/injection, schedule: Q01DX009 (ip), vehicle: saline with Tween-80
[3] = dose: 400.0 mg/kg/injection, schedule: Q01DX009 (ip), vehicle: saline with Tween-80
[4] = dose: 100.0 mg/kg/injection, schedule: Q04DX003 (ip), vehicle: saline with Tween-80
[5] = dose: 200.0 mg/kg/injection, schedule: Q04DX003 (ip), vehicle: saline with Tween-80
[6] = dose: 400.0 mg/kg/injection, schedule: Q04DX003 (ip), vehicle: saline with Tween-80
[7] = dose: 100.0 mg/kg/injection, schedule: Q01DX001 (ip), vehicle: saline with Tween-80
[8] = dose: 200.0 mg/kg/injection, schedule: Q01DX001 (ip), vehicle: saline with Tween-80
[9] = dose: 50.0 mg/kg/injection, schedule: Q01DX009 (ip), vehicle: saline with Tween-80
[10] = dose: 400.0 mg/kg/injection, schedule: Q01DX001 (ip), vehicle: saline with Tween-80

C[NH-].[Cl][Pt+2][Cl].[NH-]C1CC1
T/C (dose: 1.56 mg/kg/injection, schedule: Q04DX003 (ip), vehicle: saline): 103 % of control
T/C (dose: 3.12 mg/kg/injection, schedule: Q04DX003 (ip), vehicle: saline with Tween-80): 113 % of control
T/C (dose: 3.12 mg/kg/injection, schedule: Q04DX003 (ip), vehicle: saline): 103 % of control
T/C (dose: 6.25 mg/kg/injection, schedule: Q04DX003 (ip), vehicle: saline): 120 % of control
T/C (dose: 12.5 mg/kg/injection, schedule: Q04DX003 (ip), vehicle: saline with Tween-80): 104 % of control

C/C=C(\C)C(=O)OC1C(C)C2(O)C(C=C(CO)CC3(O)C(=O)C(C)=CC32)C2C(C)(C)C12OC(=O)CCCCCCCCC (centres undefined)
T/C (dose: 125.0 micrograms/kg/injection, schedule: Q01DX009 (ip), vehicle: saline + alcohol): 90 % of control
T/C (dose: 250.0 micrograms/kg/injection, schedule: Q01DX009 (ip), vehicle: saline + alcohol): 95 % of control

CCOC(=O)NCC(Cl)(Cl)Cl
T/C (dose: 37.5 mg/kg/injection, schedule: Q01DX009 (ip), vehicle: saline with Tween-80): 98 % of control
T/C (dose: 75.0 mg/kg/injection, schedule: Q01DX009 (ip), vehicle: saline with Tween-80): 98 % of control
T/C (dose: 150.0 mg/kg/injection, schedule: Q01DX009 (ip), vehicle: saline with Tween-80): 102 % of control

CCN(CC)CCCC(C)NCCCCNC(C)CCCN(CC)CC (centres undefined)
T/C (dose: 12.5 mg/kg/injection, schedule: Q01DX009 (ip), vehicle: water): 90 % of control
T/C (dose: 25.0 mg/kg/injection, schedule: Q01DX009 (ip), vehicle: water): 92 % of control

CC(C)OC(=O)Nc1cc(F)cc(C(F)(F)F)c1F
T/C [1]: 94 % of control
T/C [2]: 97 % of control
T/C [3]: 97 % of control

ClC1CCCC[N-]1.ClC1CCCC[N-]1.[Cl][Pt+2][Cl] (centres undefined)
T/C (dose: 12.5 mg/kg/injection, schedule: Q01DX009 (ip), vehicle: Klucel (hydroxypropylcellulose) (HPC)): 103 % of control
T/C (dose: 25.0 mg/kg/injection, schedule: Q01DX009 (ip), vehicle: Klucel (hydroxypropylcellulose) (HPC)): 100 % of control
T/C (dose: 50.0 mg/kg/injection, schedule: Q01DX009 (ip), vehicle: Klucel (hydroxypropylcellulose) (HPC)): 95 % of control
T/C (dose: 100.0 mg/kg/injection, schedule: Q01DX009 (ip), vehicle: Klucel (hydroxypropylcellulose) (HPC)): 94 % of control
T/C (dose: 200.0 mg/kg/injection, schedule: Q01DX009 (ip), vehicle: Klucel (hydroxypropylcellulose) (HPC)): 97 % of control

[CH3][Sb]([CH3])([CH3])([O]C(=O)CF)[O]C(=O)CF
T/C (dose: 1.25 mg/kg/injection, schedule: Q01DX009 (ip), vehicle: saline): 102 % of control
T/C (dose: 2.5 mg/kg/injection, schedule: Q01DX009 (ip), vehicle: saline): 100 % of control
T/C (dose: 5.0 mg/kg/injection, schedule: Q01DX009 (ip), vehicle: saline): 106 % of control

[Cl][Pt+2][Cl].[NH-]c1ccc(S(N)(=O)=O)cc1.[NH-]c1ccc(S(N)(=O)=O)cc1
T/C (dose: 25.0 mg/kg/injection, schedule: Q04DX003 (ip), vehicle: saline with Tween-80): 90 % of control
T/C (dose: 50.0 mg/kg/injection, schedule: Q04DX003 (ip), vehicle: saline with Tween-80): 98 % of control
T/C [4]: 94 % of control
T/C [5]: 102 % of control
T/C [6]: 102 % of control

Cc1cccc(N=Cc2ccccc2O)c1
T/C [7]: 88 % of control
T/C [8]: 97 % of control

CCCCOCN(COCCCC)C12CC3CC(CC(C3)C1)C2
T/C (dose: 12.5 mg/kg/injection, schedule: Q01DX009 (ip), vehicle: saline with Tween-80): 96 % of control and 100 % of control
T/C (dose: 25.0 mg/kg/injection, schedule: Q01DX009 (ip), vehicle: saline with Tween-80): 98 % of control
T/C [9]: 101 % of control and 103 % of control
T/C [1]: 101 % of control and 105 % of control
T/C [2]: 113 % of control and 108 % of control

NC(CSC(c1ccccc1)(c1ccccc1)c1ccc(CBr)cc1)C(=O)O (centres undefined)
T/C (dose: 12.5 mg/kg/injection, schedule: Q01DX009 (ip), vehicle: other): 107 % of control
T/C (dose: 25.0 mg/kg/injection, schedule: Q01DX009 (ip), vehicle: other): 107 % of control
T/C (dose: 50.0 mg/kg/injection, schedule: Q01DX009 (ip), vehicle: other): 109 % of control
T/C (dose: 100.0 mg/kg/injection, schedule: Q01DX009 (ip), vehicle: other): 115 % of control
T/C (dose: 400.0 mg/kg/injection, schedule: Q01DX009 (ip), vehicle: other): 164 % of control

COc1ccc(/C=N/NC(=O)CNC(=O)Nc2cccc(C(F)(F)F)c2)cc1
T/C [9]: 92 % of control
T/C [1]: 88 % of control
T/C [2]: 92 % of control

C[CH2][Pb]([CH2]C)([CH2]C)[O]C(=O)COc1ccccc1
T/C (dose: 1.5 mg/kg/injection, schedule: Q04DX003 (ip), vehicle: Klucel (hydroxypropylcellulose) (HPC)): 104 % of control
T/C (dose: 3.0 mg/kg/injection, schedule: Q04DX003 (ip), vehicle: Klucel (hydroxypropylcellulose) (HPC)): 97 % of control
T/C (dose: 6.0 mg/kg/injection, schedule: Q04DX003 (ip), vehicle: Klucel (hydroxypropylcellulose) (HPC)): 100 % of control
T/C (dose: 12.0 mg/kg/injection, schedule: Q04DX003 (ip), vehicle: Klucel (hydroxypropylcellulose) (HPC)): 104 % of control
T/C (dose: 24.0 mg/kg/injection, schedule: Q04DX003 (ip), vehicle: Klucel (hydroxypropylcellulose) (HPC)): 86 % of control

COc1cc([N+](=O)[O-])ccc1NC(=O)N(c1ccccc1)C(C)C
T/C [7]: 101 % of control and 112 % of control
T/C [1]: 98 % of control and 105 % of control
T/C (dose: 100.0 mg/kg/injection, schedule: Q04DX002 (ip), vehicle: saline with Tween-80): 96 % of control
T/C [4]: 101 % of control
T/C [8]: 101 % of control and 104 % of control
T/C [2]: 94 % of control and 95 % of control
T/C (dose: 200.0 mg/kg/injection, schedule: Q04DX002 (ip), vehicle: saline with Tween-80): 98 % of control
T/C [5]: 95 % of control
T/C [10]: 95 % of control and 97 % of control
T/C [3]: 94 % of control and 101 % of control
T/C (dose: 400.0 mg/kg/injection, schedule: Q04DX002 (ip), vehicle: saline with Tween-80): 98 % of control
T/C [6]: 103 % of control

CC1CCC(CC(N)=O)C1(C)C (centres undefined)
T/C [7]: 97 % of control
T/C [8]: 105 % of control
T/C [10]: 97 % of control

O=C1C(c2ccccc2)=C(c2ccccc2)C(c2ccccc2)=C1c1ccccc1
T/C [9]: 95 % of control
T/C [7]: 97 % of control
T/C [1]: 91 % of control
T/C [8]: 87 % of control
T/C [2]: 88 % of control
T/C [10]: 91 % of control

CC12CCC(=O)C=C1CCC1C2CCC2(C)C(C(=O)Cn3c(=O)[nH]cc(F)c3=O)CCC12 (centres undefined)
T/C (dose: 12.5 mg/kg/injection, schedule: Q04DX003 (ip), vehicle: Klucel (hydroxypropylcellulose) (HPC)): 94 % of control
T/C (dose: 25.0 mg/kg/injection, schedule: Q04DX003 (ip), vehicle: Klucel (hydroxypropylcellulose) (HPC)): 94 % of control
T/C (dose: 50.0 mg/kg/injection, schedule: Q04DX003 (ip), vehicle: Klucel (hydroxypropylcellulose) (HPC)): 97 % of control
T/C (dose: 100.0 mg/kg/injection, schedule: Q04DX003 (ip), vehicle: Klucel (hydroxypropylcellulose) (HPC)): 91 % of control
T/C (dose: 200.0 mg/kg/injection, schedule: Q04DX003 (ip), vehicle: Klucel (hydroxypropylcellulose) (HPC)): 95 % of control

COc1cc(OC)c(NC(=O)OCCOc2ccc(Cl)cc2Cl)cc1Cl
T/C [9]: 92 % of control
T/C [1]: 88 % of control

OCc1cc(Cl)cc(Cl)c1OCc1ccccc1
T/C (dose: 100.0 mg/kg/injection, schedule: Q04DX002 (ip), vehicle: other): 101 % of control
T/C (dose: 200.0 mg/kg/injection, schedule: Q04DX002 (ip), vehicle: other): 101 % of control
T/C (dose: 400.0 mg/kg/injection, schedule: Q04DX002 (ip), vehicle: other): 101 % of control
